{
  "source": "paper PMC2796434",
  "about": "(Bioorganic & medicinal chemistry, 2008)",
  "target": "T1, GV sPLA2 (Homo sapiens, UniProt P39877)",
  "T1 sequence (P39877 21-138)": "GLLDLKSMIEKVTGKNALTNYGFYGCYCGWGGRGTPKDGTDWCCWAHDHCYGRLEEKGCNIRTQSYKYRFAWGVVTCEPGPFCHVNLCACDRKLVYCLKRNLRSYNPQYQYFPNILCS",
  "assay": "mixed-micelle radiolabelled phospholipid",
  "format": "biochemical",
  "data": [
    {"smiles": "CCCC[C@H](CCC(=O)O)NC(=O)CCCCCCc1ccccc1", "note": "[compound 42, (R)-4-(7-Phenylheptanamido)octanoic acid]", "values": [
      {"measurement": "GV sPLA2", "result": "0.003 ± 0.0004 mole fraction (XI(50))"}
    ]}
  ]
}
